Laboratory results as given in patent publication US20040049072A1, “RXR modulators with improved pharmacologic profile” (priority 1999, published 2004).

Tests used:
RXRα:PPARγ heterodimer = biological target: T1, RXRα:PPARγ heterodimer (Homo sapiens, UniProt P19793); experiment: RXR:PPARγ heterodimer co-transfection assay in CV-1 cells; format: cell-based; conditions: for PPARγ CV-1 (%) Synergy: maximal response in presence of 100 nM BRL49653 relative to BRL49653 alone; for RXRα:PPARγ Heterodimer Cotransfection Assay Synerg Efficacy (%): maximal response in presence of 100 nM BRL relative to response of BRL alone; for RXRα:PPARγ Heterodimer Cotransfection Assay Agonist Efficacy (%): maximal response relative to response of BRL 49653; for activity on the RXRα:PPARγ heterodimer in combination with the PPARγ ligand: synergy mode, with BRL 49653
T1 construct: expressed in transfected cells; host or cells: CV-1 cells
T1 sequence (P19793 1-462): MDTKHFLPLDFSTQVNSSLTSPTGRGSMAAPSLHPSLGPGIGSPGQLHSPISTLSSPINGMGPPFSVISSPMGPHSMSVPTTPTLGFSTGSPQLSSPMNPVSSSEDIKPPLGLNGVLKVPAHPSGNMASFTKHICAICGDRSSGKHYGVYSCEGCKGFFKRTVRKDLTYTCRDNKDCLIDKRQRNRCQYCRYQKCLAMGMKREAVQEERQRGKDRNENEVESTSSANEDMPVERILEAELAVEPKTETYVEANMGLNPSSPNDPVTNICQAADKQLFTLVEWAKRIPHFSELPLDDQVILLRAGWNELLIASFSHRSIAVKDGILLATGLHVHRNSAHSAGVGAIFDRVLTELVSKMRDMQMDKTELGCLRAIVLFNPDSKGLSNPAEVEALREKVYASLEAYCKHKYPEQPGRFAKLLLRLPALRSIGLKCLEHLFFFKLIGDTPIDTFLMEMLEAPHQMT
T1 sequence (P37231 1-505 partner): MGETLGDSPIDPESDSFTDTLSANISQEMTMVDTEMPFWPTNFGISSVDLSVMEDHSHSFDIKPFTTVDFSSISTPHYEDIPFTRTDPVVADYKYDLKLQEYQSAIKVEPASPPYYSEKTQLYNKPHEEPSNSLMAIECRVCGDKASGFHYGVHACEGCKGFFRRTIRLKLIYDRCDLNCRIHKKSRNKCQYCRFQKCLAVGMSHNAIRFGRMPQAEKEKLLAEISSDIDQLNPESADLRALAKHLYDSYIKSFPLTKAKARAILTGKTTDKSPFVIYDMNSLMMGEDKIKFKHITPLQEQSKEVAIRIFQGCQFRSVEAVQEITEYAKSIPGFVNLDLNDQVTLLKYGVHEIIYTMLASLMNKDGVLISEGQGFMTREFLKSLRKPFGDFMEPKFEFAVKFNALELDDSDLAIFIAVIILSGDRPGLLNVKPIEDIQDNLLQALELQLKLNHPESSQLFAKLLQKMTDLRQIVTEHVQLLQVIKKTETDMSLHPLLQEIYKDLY
Protocol: For determination of agonist activity in the context of the RXR:RAR heterodimer or the RXR:PPARγ heterodimer, media containing compounds of the present invention in concentrations ranging from 10^−10 to 10^−5 M were added to the cells.
Compounds of the present invention were also tested for the ability to synergize with a PPARγ agonist in the context of an RXR heterodimer. […] Efficacy of the compounds of the present invention in the agonist and synergy assays was calculated as the maximum response obtained over the range of the dose response curve relative to the maximum response obtained by the reference agonist. Antagonist efficacy was determined as a function (%) of maximal inhibition.
To examine the effects of the compounds of the present invention on the transcriptional properties of the RXR:PPARγ, a heterodimer cotransfection assay as described above was employed.

[1] = test system: mice transgenic for the human apolipoprotein A-I gene; experiment: transgenic mice carrying the human apo A-I gene (HDL cholesterol, triglycerides); format: in vivo, mouse
Source text: Mice transgenic for the human apolipoprotein A-I gene (obtained from Jackson Laboratory) were used to evaluate PPARalpha mediated effects on HDL cholesterol. The mice were handled as described above for db/db mice, except that they were fed Purina 5001.

Structure (SMILES)	activity on the RXRα:PPARγ heterodimer, tested alone (RXRα:PPARγ heterodimer)	PPARγ CV-1 (%) Synergy (RXRα:PPARγ heterodimer) [%]	RXRα:PPARγ Heterodimer Cotransfection Assay Synerg Efficacy (%) (RXRα:PPARγ heterodimer)	RXRα:PPARγ Heterodimer Cotransfection Assay Agonist Efficacy (%) (RXRα:PPARγ heterodimer)	activity on the RXRα:PPARγ heterodimer in combination with the PPARγ ligand (RXRα:PPARγ heterodimer)	triglycerides [1]
COc1c(/C(C)=C/C=C/C(C)=C/C(=O)O)cc(C(C)(C)C)cc1C(C)(C)C [Compound L1]	both agonist and synergistic activity similar to that seen with LGD1069 and LG100268	166	166	59	both agonist and synergistic activity similar to that seen with LGD1069 and LG100268	substantially raise triglycerides
CCOc1c(/C(C)=C/C=C/C(C)=C/C(=O)O)cc(C(C)(C)C)cc1C(C)(C)C [Compound L2]	partial agonist alone	69	69	14	stronger activity in combination with the PPARγ ligand	
CCCOc1c(/C(C)=C/C=C/C(C)=C/C(=O)O)cc(C(C)(C)C)cc1C(C)(C)C [Compound L3]	only weakly active alone	25	25	6	active in the presence of the PPARγ ligand	
CCCCOc1c(/C(C)=C/C=C/C(C)=C/C(=O)O)cc(C(C)(C)C)cc1C(C)(C)C [Compound L4]	only weakly active alone	20	20	3	active in the presence of the PPARγ ligand	
CCCCCCCOc1c(/C(C)=C/C=C/C(C)=C/C(=O)O)cc(C(C)(C)C)cc1C(C)(C)C [Compound L5]	not active as an agonist	6	6	4	not active as an agonist	
